Source: patent US12173309B2, “Compounds for increasing genome editing efficiency” (Max-Planck-Gesellschaft zur Förderung der Wissenschaften …, priority 2017, dated 2024)

Assays:
Format in all cases: cell-based, human
CD4^+ T cells = assay: PGE of HPRT with Cpf1 electroporation in non-pluripotent cells; conditions: primary cells
Protocol: (§1) Cells were grown at 37° C. in a humidified incubator gassed with 5% CO2. Media was replaced every day for stem cells and every second day for non-pluripotent cell lines. Cell cultures were maintained 4-6 days until ˜80% confluency, and subcultured at a 1:6 to 1:10 dilution.
(§2) The recombinant A.s. Cpf1 and S.p. Cas9 protein and electroporation enhancer was ordered from IDT (Coralville, USA) and nucleofection was done using the manufacturer's protocol, except for the following alterations. […] For multiplexing, only gRNAs and single stranded DNA donors were electroporated, since a Cas9n expressing iCRISPR-Cas9n hiPSC line was used. Cells were counted using the Countess Automated Cell Counter (Invitrogen).
(§3) Three days after lipofection cells were dissociated using Accutase (SIGMA, A6964), pelleted, and resuspended in 15 μl QuickExtract (Epicentre, QE0905T). Incubation at 65° C. for 10 min, 68° C. for 5 min and finally 98° C. for 5 min was performed to yield ssDNA as a PCR template. Primers for each targeted loci of CALD1, KATNA1 and SLITRK1 containing adapters for Illumina sequencing were ordered from IDT (Coralville, USA). PCR was done in a T100 Thermal Cycler (Bio-Rad) using the KAPA2G Robust PCR Kit (Peqlab, 07-KK5532-03) with supplied buffer B and 3 μl of cell extract in a total volume of 25 μl. The thermal cycling profile of the PCR was: 95° C.

CD34^+ progenitor cells = assay: as above; conditions: primary cells
Protocol: as §1, §2, §3

[1] = system: 409-B2 iCRISPR-Cas9n hiPSCs; assay: BFP insertion (871 nt ssODN) efficiency in AAVS1 iCRISPR locus, microscopy; conditions: 7 days of BFP expression
Excerpt: FIG. 8: Impact of the CRISPY mix and its component NU7026 on BFP insertion (ssODN) efficacy in human induced pluripotent stem cells. The design of the mtagBFP2 (Subach et al. 2011) ssODN donor and the iCRISPR system is shown in (A). We inserted a 871 nt (including 50 nt homology arms) sequence coding for a 2A-self cleaving peptide in front of a Blue Fluorescent Protein (BFP), directly after the N-terminal nuclear localization signal sequence (NLS) of the Cas9n in the heterozygous AAVS1 iCRISPR locus (409-B2 iCRISPR-Cas9n hiPSCs). If the sequence is inserted, doxycycline will lead to expression of nucleus-imported BFP. […] Two images (50× magnification, white size bar 200 μm) from each of three technical replicates for the respective treatments were used to quantify the percentage of cells with BFP insertion using ImageJ (C).
409-B2 iCRISPR-Cas9n hiPSCs were nucleofected with gRNAs and the Blue Fluorescent Protein (BFP) single stranded oligo (FIG. 8A, 330 ng) in […] for either mock, NU7026, and CRISPY mix treatment. […] Images were blinded and BFP positive nuclei were counted using the Adobe Photoshop CS5 counting tool. Propidium iodide positive nuclei were quantified using ImageJ by dividing the area of nuclei (default threshold) with the mean area of a single nucleus.

SMILES: NS(=O)(=O)OC[C@@H]1C[C@@H](n2ccc3c(N[C@H]4CCc5ccccc54)ncnc32)C[C@@H]1O [MLN4924, Pevonedistat]
- effect on PGE efficiency (CD4^+ T cells): disruptive effect
- effect on PGE efficiency (CD34^+ progenitor cells): disruptive effect

SMILES: O=c1cc(N2CCOCC2)oc2c1ccc1ccccc12 [NU7026]
- nuclei positive for BFP [1]: 6%
- increase of nuclei positive for BFP ([1]; vs no-CRISPY control (3.7%)): 1.6 fold
